Assay results as given in ChEMBL document CHEMBL4834490, “Novel Bromodomain Inhibitors for Treating Cancer, Fibrosis, and Inflammatory Disorders” (ACS Med Chem Lett, 2021).

Assays:
[1] = target: T1, Bromodomain-containing protein 4 (Homo sapiens, UniProt O60885); assay: Binding affinity to DNA-tagged human BRD4 (BD1,2) isoform long expressed in Escherichia coli BL21 incubated for 1 hr by competitive ligand binding BROMOscan assay
[2] = target: T1, Bromodomain-containing protein 4; assay: Inhibition of binding of N-terminal His-tagged human full length recombinant BRD4 (2 to 1362 residues) expressed in baculovirus-infected Sf9 cells with acetylated histone H4 peptide (1 to 21) preincubated for 30 mins followed by H4 ligand addition and measured after 30 mins AlphaScreen assay

Structure (SMILES)	Kd [1] [nM]	IC50 [2] [nM]
Cc1cc(-c2ccc3nc(-c4cnn(CC(C)(C)O)c4)nc(N4CCOC[C@@H]4C4CC4)c3c2)cn(C)c1=O	< 100	100
Cn1cc(-c2ccc3nc(-c4cnn(CC(C)(C)O)c4)nc(N4CCOC[C@@H]4c4ccccc4)c3c2)c2cc[nH]c2c1=O	< 100	< 100
Cc1cc(-c2ccc3nc(-c4cnn(CC(C)(C)O)c4)nc(N4CCOC[C@@H]4c4ccccc4)c3c2)cn(C)c1=O	< 100	< 100
Cn1cc(-c2ccc3nc(-c4cnn(CC(C)(C)O)c4)nc(N4CCOC[C@@H]4c4ccc(F)cc4)c3c2)c2cc[nH]c2c1=O	< 100	< 100
Cn1cc(-c2ccc3nc(-c4cnn(CC(C)(C)O)c4)nc(N4CCOC[C@@H]4C4CC4)c3c2)c2cc[nH]c2c1=O	< 100	< 100
Cc1cc(-c2ccc3nc(-c4cnn(CC(C)(C)O)c4)nc(N4CCOC[C@@H]4c4ccc(F)cc4)c3c2)cn(C)c1=O	< 100	< 100
